Results as given in US20230120044A1, “AGROCHEMICAL ADJUVANTS” (Croda International Plc, priority 2020, published 2023).

How the values were obtained:
B. cinerea = test: Adjuvancy with other fungicides for B. cinerea; type: cell-based, Botrytis cinerea
Experimental: Botrytis cinerea (ATCC 90479) was cultured on potato dextrose agar (PDA) for 7 days with diurnal UV cycles (12 h UV light and 12 h dark). Spores were harvested in a buffered, sterile saline solution (0.9% saline water with 1% Tween 80) and counted using a haemocytometer. The spore suspension was adjusted to a final concentration of 8.5×10^6 spores/mL to create a standardised inoculum. To prepare hyphal fragments for adjuvant testing, 8.5×10^4 spores were used to inoculate 10 mL of potato dextrose broth in a 150×25 mm tube. The tube was incubated at 220 RPM, 22° C. for 48 hours. To create hyphal fragments from the culture, the culture was transferred to a 50 mL plastic conical tube containing approximately 20 sterile 5 mm diameter glass beads and vortexed for 5 min. After vortexing the tube was allowed to stand for 5 min to allow large mycelial clumps to settle and then the top layer containing hyphal fragments was removed and used as inocula for growth inhibition assays. Fungicides and adjuvants were dissolved in methanol and added to molten PDA (˜50° C.) and then the agar was distributed in the wells of 12 well multiwell plates (1 mL/well). The plates were cooled to room temperature and 10 μL of hyphal inoculum was added to the centre of each well. The plates were incubated at 22° C. for 48 hours and then the colony diameter was measured using a digital caliper. The biological growth control consisted of hyphae and vehicle (0.07% methanol), the negative control was media and vehicle (0.07% methanol). To expand the functional characterisation of the lamellicolic anhydride adjuvant (Ia) was tested in combination with seven fungicides belonging to six different fungicide groups as classified by the Fungicide Resistance Action Committee (FRAC Code List 2018). Numbers indicate fold change improvement in fungal growth inhibition relative to the fungal test organisms treated with fungicide and adjuvant vehicle alone. n.t. indicates not tested.

Fusarium solani = test: Adjuvancy with other fungicides for other fungus, FT1; type: cell-based; details: Ia 4 μg/mL + dimethomorph 12.8 μg/mL
Experimental: (§1) To evaluate the biological spectrum of activity, lamellicolic anhydride adjuvant (Ta) was tested in combination with seven fungicides against six different fungal test organisms belonging to five different genera.
(§2) Prior to evaluating the adjuvant effect of (Ia), the minimum inhibitory concentration (MIC) for each fungicide against each test organism was determined by measuring growth on agar plates containing decreasing concentrations of fungicide.
(§3) Once the MIC was determined, adjuvant testing was performed with the concentration of (Ta) fixed at 4 μg/mL and each fungicide at a concentration which inhibited growth of the fungus by 10-20%.
(§4) Fungal targets are: FT1 —Fusarium solani, FT2 —Fusarium oxysporum, FT3 —Alternaria infectorium, FT4 —Penicillium roqueforti, FT5 —Aspergillus flavus, FT6 —Cladosporium sp.
(§5) The numbers indicate fold change improvement in fungal growth inhibition relative to the fungal test organisms treated with fungicide and adjuvant vehicle alone. A value of 1 would indicate no effect on fungicidal activity, whilst a value >1 indicates improved fungicidal activity. n.t. indicates not tested.

Fusarium oxysporum = test: Adjuvancy with other fungicides for other fungus, FT2; type: cell-based; details: Ia 4 μg/mL + pyraclostrobin 0.01 μg/mL
Experimental: as §1, §2, §3, §4, §5

Alternaria infectorium = test: Adjuvancy with other fungicides for other fungus, FT3; type: cell-based
Experimental: as §1, §2, §3, §4, §5

Penicillium roqueforti = test: Adjuvancy with other fungicides for other fungus, FT4; type: cell-based
Experimental: as §1, §2, §3, §4, §5

Aspergillus flavus = test: Adjuvancy with other fungicides for other fungus, FT5; type: cell-based
Experimental: as §1, §2, §3, §4, §5

Cladosporium sp. = test: Adjuvancy with other fungicides for other fungus, FT6; type: cell-based; details: Ia 4 μg/mL + pyrimethanil 0.006 μg/mL
Experimental: as §1, §2, §3, §4, §5

[1] = Ia 4 μg/mL + pyraclostrobin 0.001 μg/mL
[2] = Ia 4 μg/mL + iprodione 0.0015 μg/mL
[3] = Ia 4 μg/mL + mancozeb 0.2 μg/mL

Cc1cc(O)c2c3c(c(O)cc(O)c13)C(=O)OC2=O [Lam 261 (Ia), Lamellicolic anhydride]
Fold Change in Growth Inhibition (B. cinerea; Lam 261 (Ia) 1 μg/mL + benomyl 0.0015 μg/mL): 16.45
Fold Change in Growth Inhibition (B. cinerea; Lam 261 (Ia) 1 μg/mL + captan 0.008 μg/mL): 17.25
Fold Change in Growth Inhibition (B. cinerea; Lam 261 (Ia) 1 μg/mL + captan 0.04 μg/mL): 27.32
Fold Change in Growth Inhibition (B. cinerea; Lam 261 (Ia) 1 μg/mL + dimethomorph 0.8 μg/mL): 17.72
Fold Change in Growth Inhibition (B. cinerea; Lam 261 (Ia) 1 μg/mL + mancozeb 0.1 μg/mL): 1.89
Fold Change in Growth Inhibition (B. cinerea; Lam 261 (Ia) 1 μg/mL + mancozeb 0.2 μg/mL): 2.44
Fold Change in Growth Inhibition (B. cinerea; Lam 261 (Ia) 1 μg/mL + metalaxyl 0.8 μg/mL): 31.72
Fold Change in Growth Inhibition (B. cinerea; Lam 261 (Ia) 1 μg/mL + metalaxyl 1.6 μg/mL): 27.22
Fold Change in Growth Inhibition (B. cinerea; Lam 261 (Ia) 1 μg/mL + prothioconazole 1.0 μg/mL): 5.53
Fold Change in Growth Inhibition (B. cinerea; Lam 261 (Ia) 1 μg/mL + tebuconazole 0.00018 μg/mL): 15.13
Fold Change in Growth Inhibition (B. cinerea; Lam 261 (Ia) 1 μg/mL + tebuconazole 0.00075 μg/mL): 9.37
Fold Change in Growth Inhibition (B. cinerea; Lam 261 (Ia) 1 μg/mL, benomyl 0 μg/mL (adjuvant alone)): 1.00
Fold Change in Growth Inhibition (B. cinerea; Lam 261 (Ia) 1 μg/mL, captan 0 μg/mL (adjuvant alone)): 1.00
Fold Change in Growth Inhibition (B. cinerea; Lam 261 (Ia) 1 μg/mL, dimethomorph 0 μg/mL (adjuvant alone)): 1.00
Fold Change in Growth Inhibition (B. cinerea; Lam 261 (Ia) 1 μg/mL, mancozeb 0 μg/mL (adjuvant alone)): 1.00
Fold Change in Growth Inhibition (B. cinerea; Lam 261 (Ia) 1 μg/mL, metalaxyl 0 μg/mL (adjuvant alone)): 1.00
Fold Change in Growth Inhibition (B. cinerea; Lam 261 (Ia) 1 μg/mL, prothioconazole 0 μg/mL (adjuvant alone)): 1.00
Fold Change in Growth Inhibition (B. cinerea; Lam 261 (Ia) 1 μg/mL, tebuconazole 0 μg/mL (adjuvant alone)): 1.00
Fold Change in Growth Inhibition (B. cinerea; Lam 261 (Ia) 2 μg/mL + benomyl 0.0015 μg/mL): 20.43
Fold Change in Growth Inhibition (B. cinerea; Lam 261 (Ia) 2 μg/mL + captan 0.008 μg/mL): 32.35
Fold Change in Growth Inhibition (B. cinerea; Lam 261 (Ia) 2 μg/mL + captan 0.04 μg/mL): 30.95
Fold Change in Growth Inhibition (B. cinerea; Lam 261 (Ia) 2 μg/mL + dimethomorph 0.4 μg/mL): 31.0
Fold Change in Growth Inhibition (B. cinerea; Lam 261 (Ia) 2 μg/mL + dimethomorph 0.8 μg/mL): 16.06
Fold Change in Growth Inhibition (B. cinerea; Lam 261 (Ia) 2 μg/mL + mancozeb 0.1 μg/mL): 3.06
Fold Change in Growth Inhibition (B. cinerea; Lam 261 (Ia) 2 μg/mL + mancozeb 0.2 μg/mL): 2.83
Fold Change in Growth Inhibition (B. cinerea; Lam 261 (Ia) 2 μg/mL + metalaxyl 0.8 μg/mL): 45.13
Fold Change in Growth Inhibition (B. cinerea; Lam 261 (Ia) 2 μg/mL + metalaxyl 1.6 μg/mL): 32.46
Fold Change in Growth Inhibition (B. cinerea; Lam 261 (Ia) 2 μg/mL + prothioconazole 1.0 μg/mL): 26.91
Fold Change in Growth Inhibition (B. cinerea; Lam 261 (Ia) 2 μg/mL + tebuconazole 0.00018 μg/mL): 21.61
Fold Change in Growth Inhibition (B. cinerea; Lam 261 (Ia) 2 μg/mL + tebuconazole 0.00075 μg/mL): 9.79
Fold Change in Growth Inhibition (B. cinerea; Lam 261 (Ia) 2 μg/mL, benomyl 0 μg/mL (adjuvant alone)): 1.00
Fold Change in Growth Inhibition (B. cinerea; Lam 261 (Ia) 2 μg/mL, captan 0 μg/mL (adjuvant alone)): 1.00
Fold Change in Growth Inhibition (B. cinerea; Lam 261 (Ia) 2 μg/mL, dimethomorph 0 μg/mL (adjuvant alone)): 1.00
Fold Change in Growth Inhibition (B. cinerea; Lam 261 (Ia) 2 μg/mL, mancozeb 0 μg/mL (adjuvant alone)): 1.00
Fold Change in Growth Inhibition (B. cinerea; Lam 261 (Ia) 2 μg/mL, metalaxyl 0 μg/mL (adjuvant alone)): 1.00
Fold Change in Growth Inhibition (B. cinerea; Lam 261 (Ia) 2 μg/mL, prothioconazole 0 μg/mL (adjuvant alone)): 1.00
Fold Change in Growth Inhibition (B. cinerea; Lam 261 (Ia) 2 μg/mL, tebuconazole 0 μg/mL (adjuvant alone)): 1.00
fold change improvement in fungal growth inhibition (Fusarium solani): 1.63
fold change improvement in fungal growth inhibition (Fusarium oxysporum): 1.63
fold change improvement in fungal growth inhibition (Alternaria infectorium; Ia 4 μg/mL + dimethomorph 0.2 μg/mL): 1.25
fold change improvement in fungal growth inhibition (Alternaria infectorium; Ia 4 μg/mL + mancozeb 0.1 μg/mL): 2.45
fold change improvement in fungal growth inhibition (Alternaria infectorium; Ia 4 μg/mL + prothioconazole 0.006 μg/mL): 1.50
fold change improvement in fungal growth inhibition (Alternaria infectorium; [1]): 1.18
fold change improvement in fungal growth inhibition (Penicillium roqueforti; Ia 4 μg/mL + captan 0.04 μg/mL): 1.17
fold change improvement in fungal growth inhibition (Penicillium roqueforti; Ia 4 μg/mL + dimethomorph 0.8 μg/mL): 1.85
fold change improvement in fungal growth inhibition (Penicillium roqueforti; [2]): 1.65
fold change improvement in fungal growth inhibition (Penicillium roqueforti; [3]): 1.63
fold change improvement in fungal growth inhibition (Penicillium roqueforti; Ia 4 μg/mL + prothioconazole 0.00375 μg/mL): 1.52
fold change improvement in fungal growth inhibition (Penicillium roqueforti; [1]): 1.27
fold change improvement in fungal growth inhibition (Penicillium roqueforti; Ia 4 μg/mL + pyrimethanil 0.02 μg/mL): 1.31
fold change improvement in fungal growth inhibition (Aspergillus flavus; Ia 4 μg/mL + dimethomorph 12.8 μg/mL): 1.27
fold change improvement in fungal growth inhibition (Aspergillus flavus; [2]): 1.72
fold change improvement in fungal growth inhibition (Aspergillus flavus; [3]): 2.01
fold change improvement in fungal growth inhibition (Aspergillus flavus; Ia 4 μg/mL + prothioconazole 0.012 μg/mL): 1.28
fold change improvement in fungal growth inhibition (Cladosporium sp.): 1.67
